{"source": "ChEMBL document CHEMBL5126631", "about": "“Chemo- and Site-Selective Lysine Modification of Peptides and Proteins under Native Conditions Using the Water-Soluble Zolinium” (J Med Chem, 2022)", "key": {"[1]": {"test": "Drug localization in cytosol of human HepG2 cells by measuring quinolylated lysine residues at proteins at 20 uM measured after 24 hrs by nano LC/MS/MS analysis", "assay_type": "ADME, subcellular"}, "[2]": {"test": "Drug localization in golgi apparatus of human HepG2 cells by measuring quinolylated lysine residues at proteins at 20 uM measured after 24 hrs by nano LC/MS/MS analysis", "assay_type": "ADME, cell-based", "settings": "hepg2, 24 h"}, "[3]": {"test": "Drug localization in cytoplasm of human HepG2 cells by measuring quinolylated lysine residues at proteins at 20 uM measured after 24 hrs by nano LC/MS/MS analysis", "assay_type": "ADME, cell-based", "settings": "hepg2, 24 h"}, "[4]": {"biological_target": "T1, Replicase polyprotein 1ab (Severe acute respiratory syndrome coronavirus 2, UniProt P0DTD1)", "test": "Inhibition of SARS-CoV-2 3CLpro using Dabcyl-KNSTLQSGLRKE-Edans fluorogenic peptide as substrate by FRET assay"}, "[5]": {"test": "Drug localization in cytoskeleton of human HepG2 cells by measuring quinolylated lysine residues at proteins at 20 uM measured after 24 hrs by nano LC/MS/MS analysis", "assay_type": "ADME, cell-based", "settings": "hepg2, 24 h"}, "[6]": {"test": "Drug localization in endoplasmic reticulum of human HepG2 cells by measuring quinolylated lysine residues at proteins at 20 uM measured after 24 hrs by nano LC/MS/MS analysis", "assay_type": "ADME, cell-based", "settings": "hepg2, 24 h"}, "[7]": {"biological_target": "T1, Replicase polyprotein 1ab", "test": "Inhibition of SARS-CoV-2 3CLpro preincubated for 60 mins followed by addition of Dabcyl-KNSTLQSGLRKE-Edans fluorogenic peptide as substrate by FRET assay"}, "[8]": {"test": "Drug localization in nucleus of human HepG2 cells by measuring quinolylated lysine residues at proteins at 20 uM measured after 24 hrs by nano LC/MS/MS analysis", "assay_type": "ADME, cell-based", "settings": "hepg2, 24 h"}, "[9]": {"test": "Drug localization in endosome of human HepG2 cells by measuring quinolylated lysine residues at proteins at 20 uM measured after 24 hrs by nano LC/MS/MS analysis", "assay_type": "ADME, cell-based", "settings": "hepg2, 24 h"}, "[10]": {"test": "Drug localization in cell membrane of human HepG2 cells by measuring quinolylated lysine residues at proteins at 20 uM measured after 24 hrs by nano LC/MS/MS analysis", "assay_type": "ADME, cell-based", "settings": "hepg2, 24 h"}, "[11]": {"test": "Drug localization in mitochondria of human HepG2 cells by measuring quinolylated lysine residues at proteins at 20 uM measured after 24 hrs by nano LC/MS/MS analysis", "assay_type": "ADME", "settings": "hepg2, 24 h"}, "HepG2": {"system": "HepG2", "test": "Cytotoxicity against human HepG2 cells assessed as inhibition of cell viability at 25 uM measured after 48 hrs by CCK-8 assay", "assay_type": "functional"}}, "data": [{"smiles": "C#Cc1ccc2c(ccc3[n+]2C(OC)C[Se]3)c1", "note": "(stereo unspecified)", "values": [{"measurement": "Drug uptake", "setting": "[1]", "value": 19.16, "unit": "%"}, {"measurement": "Drug uptake", "setting": "[2]", "value": 1.53, "unit": "%"}, {"measurement": "Drug uptake", "setting": "[3]", "value": 15.71, "unit": "%"}, {"measurement": "IC50", "setting": "[4]", "value": 75, "unit": "µM"}, {"measurement": "Drug uptake", "setting": "[5]", "value": 11.11, "unit": "%"}, {"measurement": "Drug uptake", "setting": "[6]", "value": 1.53, "unit": "%"}, {"measurement": "IC50", "setting": "[7]", "value": 3.66, "unit": "µM"}, {"measurement": "Drug uptake", "setting": "[8]", "value": 22.61, "unit": "%"}, {"measurement": "Drug uptake", "setting": "[9]", "value": 2.3, "unit": "%"}, {"measurement": "Drug uptake", "setting": "[10]", "value": 11.88, "unit": "%"}, {"measurement": "Drug uptake", "setting": "[11]", "value": 2.3, "unit": "%"}]}, {"smiles": "COC1CSc2ccc3cc(C(=O)NCCCCCN4C(=O)c5cccc6c(N(C)C)ccc(c56)C4=O)ccc3[n+]21.Cl.[Cl-]", "note": "(stereo unspecified)", "values": [{"measurement": "Activity", "setting": "HepG2", "value": 90, "unit": "%"}]}, {"smiles": "C#Cc1ccc2c(ccc3[n+]2C(OC)CS3)c1", "note": "(stereo unspecified)", "values": [{"measurement": "Drug uptake", "setting": "[1]", "value": 17.54, "unit": "%"}, {"measurement": "Drug uptake", "setting": "[2]", "value": 5.26, "unit": "%"}, {"measurement": "Drug uptake", "setting": "[3]", "value": 14.04, "unit": "%"}, {"measurement": "Drug uptake", "setting": "[5]", "value": 7.02, "unit": "%"}, {"measurement": "Drug uptake", "setting": "[6]", "value": 4.39, "unit": "%"}, {"measurement": "Drug uptake", "setting": "[8]", "value": 27.19, "unit": "%"}, {"measurement": "Drug uptake", "setting": "[9]", "value": 3.51, "unit": "%"}, {"measurement": "Drug uptake", "setting": "[10]", "value": 8.77, "unit": "%"}, {"measurement": "Drug uptake", "setting": "[11]", "value": 2.63, "unit": "%"}]}]}
